Laboratory results: ChEMBL document CHEMBL2413077, “Anion inhibition studies of the α-carbonic anhydrase from the protozoan pathogen Trypanosoma cruzi, the causative agent of Chagas disease” (Bioorg Med Chem, 2013)

Molecular target: Trypanosoma cruzi
Format: organism-based, CL Brener
Conditions: sf9

Row | Structure (SMILES) | Ki [µM]
1 | O=S(=O)([O-])[O-].[Na+].[Na+] [SODIUM SULFATE ANHYDROUS] | 6900
2 | [O-][Cl+3]([O-])([O-])O [SODIUM PERCHLORATE] | > 100000
3 | O=[Se](=O)(O)O [SODIUM SELENATE] | 660
4 | S [SODIUM HYDROSULFIDE] | 78
5 | O=S([O-])O.[Na+] [SODIUM BISULFITE] | 910
6 | NS(=O)(=O)O [SULFAMATE] | 10600
7 | [F-].[Na+] [SODIUM FLUORIDE] | 900
8 | [Br-].[Na+] [SODIUM BROMIDE] | 730
9 | O=S(=O)(O)OS(=O)(=O)O [SODIUM PYROSULFATE] | 760
10 | NS(N)(=O)=O [SULFAMIDE] | 120
11 | CCN(CC)C(=S)S [DITIOCARB SODIUM] | 5
12 | O=BOB(O)OB(O)OB=O [SODIUM TETRABORATE] | 24300
13 | F[B-](F)(F)F.[Na+] [SODIUM TETRAFLUOROBORATE] | > 100000
14 | O=[As](O)(O)c1ccccc1 [PHENYLARSONIC ACID] | 620
15 | O=S(=O)(O)ONOS(=O)(=O)O [SODIUM IMINODISULFATE] | 7100
16 | O=[N+]([O-])[O-].[Na+] [SODIUM NITRATE] | 770
17 | OB(O)c1ccccc1 [PHENYLBORONIC ACID] | 860
18 | [N-]=[N+]=[N-] [SODIUM AZIDE] | 1120
19 | N#C[SeH] [SODIUM SELENOCYANATE] | 780
20 | [Cl-].[Na+] [SODIUM CHLORIDE] | 810
21 | O=C([O-])[O-].[Na+].[Na+] [SODIUM CARBONATE] | 690
22 | N#CO [SODIUM CYANATE] | 80
23 | O=S(=O)(O)OOS(=O)(=O)O [SODIUM PERSULFATE] | 840
24 | [I-].[Na+] [SODIUM IODIDE] | 44
25 | O=C([O-])O.[Na+] [SODIUM BICARBONATE] | 580
26 | O=NO [SODIUM NITRITE] | 700
27 | O=[Te](=O)(O)O [SODIUM TELLURATE] | 710
